Consider 22 compounds from US8119805B2, “Substituted disulfonamide compounds” (Gruenenthal GmbH, priority 2008, dated 2012).

Counter-ions that a name gives are not always drawn.

In experiment [1] the target is T1, B1R receptor of the rat (rB1R) (Rattus norvegicus, UniProt P97583).
T1 construct: expressed in transfected cells; host or cells: CHO K1 cells
T1 sequence (P97583 1-337): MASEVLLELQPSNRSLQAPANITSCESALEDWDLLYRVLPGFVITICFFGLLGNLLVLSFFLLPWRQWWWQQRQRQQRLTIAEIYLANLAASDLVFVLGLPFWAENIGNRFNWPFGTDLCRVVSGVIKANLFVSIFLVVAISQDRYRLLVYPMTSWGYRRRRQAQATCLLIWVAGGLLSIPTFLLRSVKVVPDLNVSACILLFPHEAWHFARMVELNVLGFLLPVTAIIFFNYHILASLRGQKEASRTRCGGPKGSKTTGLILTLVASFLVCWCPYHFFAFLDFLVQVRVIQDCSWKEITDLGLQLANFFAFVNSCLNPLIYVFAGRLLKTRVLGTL
Nature of the experiment: Functional investigation on the bradykinin 1 receptor (B1R), FLIPR Ca2+ assay, rB1R cells. Type of experiment: cell-based. The note with it: test substance 10 μM; CHO K1 cells transfected with rat B1R gene; Fluo-4 Ca2+ signal; agonist Des-Arg9-bradykinin at EC80; % of maximum achievable inhibition; read-out: B1R antagonism, rat [10 μM] % inhibition. Put shortly:
(§1)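 CHO K1 cells stably expressing human or rat B1R, Fluo-4 loaded, read by FLIPR (λex 488, λem 540 nm). Test compound (10 μM) first gave % activation against Lys-Des-[MUT]-bradykinin ≥50 nM (hB1R) or Des-[MUT]-bradykinin 10 μM (rB1R). After 10–20 min, agonist at EC80 was added; % inhibition or IC50 from concentration series, n=2–3, N≥2.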

Experiment [2] has as its target T2, human B1R receptor (hB1R) (Homo sapiens, UniProt P46663).
T2 construct: expressed in transfected cells; host or cells: CHO K1 cells
T2 sequence (P46663 1-353): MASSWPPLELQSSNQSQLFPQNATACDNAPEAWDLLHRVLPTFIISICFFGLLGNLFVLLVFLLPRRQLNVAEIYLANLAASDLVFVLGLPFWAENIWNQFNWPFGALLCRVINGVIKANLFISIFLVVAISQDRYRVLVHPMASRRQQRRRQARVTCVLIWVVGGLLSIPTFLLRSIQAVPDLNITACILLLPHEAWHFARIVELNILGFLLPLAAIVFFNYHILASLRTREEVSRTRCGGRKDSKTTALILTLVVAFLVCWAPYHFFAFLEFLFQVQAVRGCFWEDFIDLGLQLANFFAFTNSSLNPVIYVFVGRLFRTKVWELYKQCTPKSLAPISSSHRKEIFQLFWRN
Put plainly: Functional investigation on the bradykinin 1 receptor (B1R), FLIPR Ca2+ assay, hB1R cells. Type of experiment: cell-based. The note with it: test substance 10 μM; CHO K1 cells transfected with human B1R gene; Fluo-4 Ca2+ signal; agonist Lys-Des-Arg9-bradykinin at EC80; % of maximum achievable inhibition; read-out: B1R antagonism, human [10 μM] % inhibition. In outline: as §1

`COc1cc(C)c(S(=O)(=O)N2CCCC2CCCCS(=O)(=O)N2CCC(CCN3CCCC3)CC2)c(C)c1C` (centres unmarked) [Example 8, 1-(4-(1-(4-Methoxy-2,3,6-trimethylphenylsulfonyl)pyrrolidin-2-yl)butylsulfonyl)-4-(2-(pyrrolidin-1-yl)ethyl)piperidine]: the inhibition at 10 µM stood at 46% in experiment [1] and 59% in experiment [2].
As to `COc1cc(C)c(S(=O)(=O)N2CCC(CCS(=O)(=O)N3CCC(CCN4CCCC4)CC3)C2)c(C)c1` (centres unmarked) [Example 25, 1-(2-(1-(4-Methoxy-2,6-dimethylphenylsulfonyl)pyrrolidin-3-yl)ethylsulfonyl)-4-(2-(pyrrolidin-1-yl)ethyl)piperidine hydrochloride], the inhibition at 10 µM in experiment [1] is 90%; in experiment [2], 103%.
The corresponding values for `Cc1cc(F)cc(C)c1S(=O)(=O)N1CCC[C@H]1CCCS(=O)(=O)N1CCC(Oc2ccncc2)CC1` [Example 73, (S)-4-(1-(3-(1-(4-Fluoro-2,6-dimethylphenylsulfonyl)pyrrolidin-2-yl)propylsulfonyl)piperidin-4-yloxy)pyridine] are 99% and 89%.
In the case of `COc1cc(C)c(S(=O)(=O)N2CC(CCS(=O)(=O)N3CCC(CCN4CCCC4)CC3)CO2)c(C)c1C` (centres unmarked) [Example 15], the figures for the inhibition at 10 µM in experiment [1] and in experiment [2] were 18% and 97%, respectively.
With `Cc1cc(C)c(S(=O)(=O)N2CC[C@@H]2CCCS(=O)(=O)N2CCC(CCN3CCCC3)CC2)c(C)c1` [Example 4, (S)-1-(3-(1-(Mesitylsulfonyl)azetidin-2-yl)propylsulfonyl)-4-(2-(pyrrolidin-1-yl)ethyl)piperidine hydrochloride], the results for the inhibition at 10 µM in experiment [1] and in experiment [2] were 13% and 76%, respectively.
Take `O=S(=O)(CCC[C@@H]1CCCN1S(=O)(=O)c1cccc(Cl)c1Cl)N1[C@@H]2CC[C@H]1C[C@H](Oc1ccncc1)C2` [Example 60, (1R,3R,5S)-8-(3-((S)-1-(2,3-Dichlorophenylsulfonyl)pyrrolidin-2-yl)propylsulfonyl)-3-(pyridin-4-yloxy)-8-azabicyclo[3.2.1]octane]: the values for the inhibition at 10 µM in experiment [1] and in experiment [2] were 100% and 89%, respectively.
The corresponding values for `Cc1cc(S(=O)(=O)N2CCC[C@H]2CCCS(=O)(=O)N2[C@@H]3CC[C@H]2C[C@H](Oc2ccncc2)C3)c(C)cc1Cl` [Example 61, (1R,3R,5S)-8-(3-((S)-1-(4-Chloro-2,5-dimethylphenylsulfonyl)pyrrolidin-2-yl)propylsulfonyl)-3-(pyridin-4-yloxy)-8-azabicyclo[3.2.1]octane] are 97% and 75%.
As to `O=S(=O)(CCC[C@@H]1CCCN1S(=O)(=O)c1ccc2ccccc2c1)N1[C@@H]2CC[C@H]1C[C@H](Oc1ccncc1)C2` [Example 57, (1R,3R,5S)-8-(3-((S)-1-(Naphthalen-2-ylsulfonyl)pyrrolidin-2-yl)propylsulfonyl)-3-(pyridin-4-yloxy)-8-azabicyclo[3.2.1]octane], the inhibition at 10 µM in experiment [1] was 54%; in experiment [2], 25%.
`Cc1cccc(Cl)c1S(=O)(=O)N1CCC[C@H]1CCCS(=O)(=O)N1CCN(C2CCN(C)CC2)CC1` [Example 27, (S)-1-(3-(1-(2-Chloro-6-methylphenylsulfonyl)pyrrolidin-2-yl)propylsulfonyl)-4-(1-methylpiperidin-4-yl)piperazine]: the inhibition at 10 µM was found to be 93% in experiment [1] and 108% in experiment [2].
Regarding `COc1cc(C)c(S(=O)(=O)N2CCC[C@H]2CCCS(=O)(=O)N2[C@@H]3CC[C@H]2C[C@H](Oc2ccncc2)C3)c(C)c1` [Example 54, (1R,3R,5S)-8-(3-((S)-1-(4-Methoxy-2,6-dimethylphenylsulfonyl)pyrrolidin-2-yl)propylsulfonyl)-3-(pyridin-4-yloxy)-8-azabicyclo[3.2.1]octane], the inhibition at 10 µM came to 98% in experiment [1] and 100% in experiment [2].
For `O=S(=O)(CCC1CCN(S(=O)(=O)c2ccc(Cl)c(Cl)c2)C1)N1CCN(c2ccncc2)CC1` (centres unmarked) [Example 24, 1-(2-(1-(3,4-Dichlorophenylsulfonyl)pyrrolidin-3-yl)ethylsulfonyl)-4-(pyridin-4-yl)piperazine hydrochloride] the same measures were 33% and 62%.
For `COc1cc(C)c(S(=O)(=O)N2CCC[C@H]2CCCS(=O)(=O)N2CCC3(CCN(c4ccncc4)C3)C2)c(C)c1` (stereo partly drawn) [Example 82, 2-(3-((S)-1-(4-Methoxy-2,6-dimethylphenylsulfonyl)pyrrolidin-2-yl)propylsulfonyl)-7-(pyridin-4-yl)-2,7-diazaspiro[4.4]nonane] the same measures were 103% and 100%.
Regarding `Cc1cccc(Cl)c1S(=O)(=O)N1CCC[C@H]1CCCS(=O)(=O)N1[C@@H]2CC[C@H]1C[C@H](Oc1ccncc1)C2` [Example 55, (1R,3R,5S)-8-(3-((S)-1-(2-Chloro-6-methylphenylsulfonyl)pyrrolidin-2-yl)propylsulfonyl)-3-(pyridin-4-yloxy)-8-azabicyclo[3.2.1]octane], the inhibition at 10 µM in experiment [1] and in experiment [2] was 98% in each case.
On to `O=S(=O)(CCC[C@@H]1CCCN1S(=O)(=O)Cc1cccc(Cl)c1)N1CCC(Oc2ccncc2)CC1` [Example 70, (S)-4-(1-(3-(1-(3-Chlorobenzylsulfonyl)pyrrolidin-2-yl)propylsulfonyl)piperidin-4-yloxy)pyridine], for which the inhibition at 10 µM in experiment [1] came out at 32%; in experiment [2] it was 26%.
For the compound `CN1CCC(N2CCN(S(=O)(=O)CCC[C@@H]3CCCN3S(=O)(=O)CC(c3ccccc3)c3ccccc3)CC2)CC1` [Example 33, (S)-1-(3-(1-(2,2-Diphenylethylsulfonyl)pyrrolidin-2-yl)propylsulfonyl)-4-(1-methylpiperidin-4-yl)piperazine], the inhibition at 10 µM in experiment [1] turned out to be 36%; in experiment [2] it was 98%.
As to `Cc1cccc(Cl)c1S(=O)(=O)N1CCC[C@H]1CCCS(=O)(=O)N1CCC(Oc2ccncc2)CC1` [Example 46, (S)-4-(1-(3-(1-(2-Chloro-6-methylphenylsulfonyl)pyrrolidin-2-yl)propylsulfonyl)piperidin-4-yloxy)pyridine], the inhibition at 10 µM in experiment [1] worked out at 99%; in experiment [2] it was 80%.
The corresponding values for `CN1CCC(N2CCN(S(=O)(=O)CCC[C@@H]3CCCN3S(=O)(=O)c3c(Cl)cc(Cl)cc3Cl)CC2)CC1` [Example 28, (S)-1-(1-Methylpiperidin-4-yl)-4-(3-(1-(2,4,6-trichlorophenylsulfonyl)pyrrolidin-2-yl)propylsulfonyl)piperazine] are 91% and 104%.
`O=S(=O)(CCC[C@@H]1CCCN1S(=O)(=O)c1ccc(Cl)cc1Cl)N1CCC(Oc2ccncc2)CC1` [Example 51, (S)-4-(1-(3-(1-(2,4-Dichlorophenylsulfonyl)pyrrolidin-2-yl)propylsulfonyl)piperidin-4-yloxy)pyridine]: the inhibition at 10 µM in experiment [1] turned out to be 93%; in experiment [2], 74%.
With `Cc1cc(C)c(S(=O)(=O)N2CCC(CCS(=O)(=O)N3CCN(c4ccncc4)CC3)C2)c(C)c1` (centres unmarked) [Example 20, 1-(2-(1-(Mesitylsulfonyl)pyrrolidin-3-yl)ethylsulfonyl)-4-(pyridin-4-yl)piperazine hydrochloride], the figures for the inhibition at 10 µM in experiment [1] and in experiment [2] were 75% and 103%, respectively.
Consider `COc1cc(C)c(S(=O)(=O)N2CCC[C@H]2CCCS(=O)(=O)N2CCC(Oc3ccncc3)CC2)c(C)c1` [Example 47, (S)-4-(1-(3-(1-(4-Methoxy-2,6-dimethylphenylsulfonyl)pyrrolidin-2-yl)propylsulfonyl)piperidin-4-yloxy)pyridine], for which the inhibition at 10 µM in experiment [1] and in experiment [2] was 95% throughout.
Consider `Cc1cc(C)c(S(=O)(=O)N2CCCC2CCCCS(=O)(=O)N2CCC(CCN3CCCC3)CC2)c(C)c1` (centres unmarked) [Example 6, 1-(4-(1-(Mesitylsulfonyl)pyrrolidin-2-yl)butylsulfonyl)-4-(2-(pyrrolidin-1-yl)ethyl)piperidine], for which the inhibition at 10 µM in experiment [1] came out at 44%; in experiment [2], 61%.
Consider `COc1cc(C)c(S(=O)(=O)N2CCCCC2CCCS(=O)(=O)N2CCC3(CC2)CCC(OCCN2CCCC2)(c2cccnc2)CC3)c(C)c1` (centres unmarked) [Example 87, 3-(3-(1-(4-Methoxy-2,6-dimethylphenylsulfonyl)piperidin-2-yl)propylsulfonyl)-9-(pyridin-3-yl)-9-(2-(pyrrolidin-1-yl)ethoxy)-3-azaspiro[5.5]undecane], for which the figures for the inhibition at 10 µM in experiment [1] and in experiment [2] were 102% and 100%, respectively.
